# From patent US20140196172A1, “Organelle Targeting Nanocarriers” (Her Majesty the Queen in Right of Canada, as Repre sented …, priority 2011, published 2014)
# Legend:
# [1] = system: chloroplasts of triticale protoplasts; assay: qRT-PCR of gfp mRNA, protoplasts transfected with pWCaadA16GFP; assay type: cell-based; details: gfp reporter construct
# Description: FIG. 20 is a plot showing the level of expression (fold increase, average of 4 replicates) of GFP in triticale protoplasts transfected with the pWCaadA16GFP plasmid in the presence of cTP1 (SEQ ID NO: 6), cTP2 (SEQ ID NO: 7), cTP3 (SEQ ID NO: 8), cTP4 (SEQ ID NO: 9) or cTP5 (SEQ ID NO: 10) compared to the level of expression (fold increase) of the internal control elongation factor 1a (EF1a), as measured by quantitative real time PCR of mRNA levels.
# (§1) Wheat chloroplast aadA16GFP reporter plasmid (pWCaadA16GFP, FIG. 12) is a 4212 base pair wheat specific plastid transformation vector, which targets insertions into the tml-tmA inverted repeat regions of the Triticum aestivum plastid genome at nucleotides 92850-93727 and 93794-94671 (GenBank accession No. AB042240.3). A multiple cloning site is introduced following the tml target insertion sequence. The selection marker gene is an organelle codon specific aad-gfp fusion gene, which facilitates a dual selection method of spectinomycin resistance through an aadA derivative and visual detection by GFP fluorescence (GenBank accession No. ABX39486; Khan and Maliga, Nat. Biotechnol. (1999 September) 17(9): 910-5). The selection marker gene is driven by the Triticum aestivum plastid genome promoter (psbA) at nucleotides 1282-1153 (GenBank accession No. AB042240.3). The aad-gfp fusion gene is terminated with the rice psbA terminator sequence derived from chloroplast transformation vector pVSR326 nucleotides 4014-4387 (GenBank accession No. AF527485.1).
# The dsDNA construct (pWMaadA16GFP for mitochondrial expression or pWCaadA16GFP for expression in chloroplasts) is combined with the mTP (for mitochondrial expression) or cTP (for expression in chloroplasts) in a final volume of 100 μl of CPW solution. For experiments using mTP1 (SEQ ID NO: 1), mTP2 (SEQ ID NO: 2), mTP3 (SEQ ID NO: 3), or mTP5 (SEQ ID NO: 5), peptides (scaled up from 100 ng, at four times the concentration needed to cause a DNA shift in the gel mobility shift assay (Table 7)) are combined with the pWMaadA16GFP construct (5 μg). For experiments using the remaining oTPs, peptides (30 μg) are combined with the appropriate dsDNA construct (1.5 μg). The mixture is incubated for 10 minutes at room temperature, then incubated with isolated triticale mesophyll protoplasts (500 μl, 10^6 protoplasts/ml, prepared as described in Example 2) for 1 h in the dark at room temperature. CPW solution (500 μl) is added and the mixture is incubated in the dark for 24 h. The cells are imaged using confocal microscopy, as described in Example 2, using MitoTracker® Orange staining to visualize mitochondria and chlorophyll autofluorescence to visualize chloroplasts.
# (§2) cDNA is generated using a First Strand Synthesis kit (Invitrogen). RNA (1 μg) is added to each sample and the manufacturer's protocol for synthesis followed, with the exception that the volume of the reaction mixture is increased from 20 μl to 30 μl. A negRT sample containing all reagents but no RNA is included in the cDNA synthesis as a negative control.
# Standard curves are generated for both elongation factor 1a (EF1a) (internal control) and green fluorescent protein (GFP) (test) genes. The EF1a curve is generated by pooling 6 μl of each cDNA sample (excluding the negRT control), then carrying out a serial dilution of 0.5 for 5 more dilutions. […]
# (§3) Real time PCR reactions are performed using QuantiTect™ SYBR™ Green PCR Master Mix (Qiagen) in a 20 μl reaction volume. […]
# [2] = system: proplastids of triticale microspores; assay: qRT-PCR of gfp mRNA, microspores transfected with pWCaadA16GFP; assay type: cell-based; details: gfp reporter construct
# Description: FIG. 18 is a plot showing the level of expression (fold increase, average of 4 replicates) of GFP in triticale microspores transfected with the pWCaadA16GFP plasmid in the presence of cTP1 (SEQ ID NO: 6), cTP2 (SEQ ID NO: 7), cTP3 (SEQ ID NO: 8), cTP4 (SEQ ID NO: 9) or cTP5 (SEQ ID NO: 10) compared to the level of expression (fold increase) of the internal control elongation factor 1a (EF1a), as measured by quantitative real time PCR of mRNA levels;
# as §1
# The dsDNA construct (pWMaadA16GFP for mitochondrial expression or pWCaadA16GFP for expression in chloroplasts) is combined with the mTP (for mitochondrial expression) or cTP (for expression in chloroplasts) in the amounts used in the protoplast transformation experiments described above in a final volume of 100 μl of NBP-99 solution. The mixture is incubated for 10 minutes at room temperature, then incubated with isolated triticale microspores (500 μl, 10^6 microspores/ml, prepared as described in Example 2) for 1 h in the dark at room temperature. NBP-99 solution (500 μl) is added and the mixture is incubated in the dark for 24 h. The cells are imaged using confocal microscopy, as described in Example 2, using MitoTracker® Orange staining to visualize mitochondria.
# Microspores are disrupted using a cleaned ceramic bead and aggressive shaking as the tissue is thawing. RLT buffer/B-Me (450 μl) is added and the sample is vortexed. The sample is heated at 55° C. for 1 minute and vortexed again. RNA is extracted using an RNeasy™ Plant Mini Kit (Qiagen), incorporating on-column DNase I digestion into the protocol. The final elution volume is 40 μl. RNA is assessed using both agarose gel […] (to ensure RNA is intact) and spectrophotometry (for quantification).
# as §2
# Standard curves are generated for both elongation factor 1a (EF1a) (internal control) and green fluorescent protein (GFP) (test) genes. […]
# as §3
sequence,measurement,setting,value
MKNPPSSFASGFGIR (listed as Oryza sativa) [cTP3],GFP expression by chloroplasts confirmed by qRT-PCR,[1],GFP is expressed
same,GFP expression by proplastids confirmed by qRT-PCR,[2],GFP is expressed
